Among the test systems are COLO 205; M14; SNB-78; SW-620; ACHN; EKVX; SF-268; HOP-92; HL-60; A498; A549; 786-0; OVCAR-4; NCI-H226; SNB-75; RXF 393.
Test in all cases: inhibition of tumour cell growth, NCI panel, 48 h

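All cell lines were grown in 96-well plates and treated with compound for 48 hours. GI50 is the concentration that inhibits growth by half.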 The source made the active and inactive calls. Cut-off read from the data, not from the text of the source: active = GI50 up to about 1.1 µM and inactive = higher.

`COc1ccc2c(c1)C(=O)C1CC(=O)CCC21` (configuration not stated): the GI50 in the test with COLO 205, in the test on M14, with SNB-78, in the test with SW-620, in the test on ACHN and in the test with EKVX was > 100 µM (inactive) in each case. Moreover, the GI50 in the test on SF-268, in the test with HOP-92, with HL-60, with A498, in the test with A549 and in the test with 786-0 was > 100 µM (inactive) in each case. In addition, the GI50 in the test with OVCAR-4, in the test with NCI-H226 and in the test with SNB-75 was > 100 µM (inactive) in each case.

For `O=C(O)c1c([N+](=O)[O-])cc(C(F)(F)F)cc1[N+](=O)[O-]`, the GI50 in the test on COLO 205, in the test with RXF 393, with M14, in the test with SNB-78, in the test on SW-620 and in the test on ACHN was > 100 µM (inactive) in each case. The GI50 in the test with EKVX was > 100 µM (inactive); in the test on SF-268 it was > 100 µM (inactive); in the test on HOP-92, 74.6 µM (inactive); in the test with HL-60 it was > 100 µM (inactive); in the test with A498, > 100 µM (inactive); with A549, > 100 µM (inactive). Besides, the GI50 in the test with 786-0, with OVCAR-4 and in the test on NCI-H226 was > 100 µM (inactive) throughout.

Regarding `CCNC(=O)COc1ccc(Cl)c(C)c1`, the GI50 in the test on COLO 205, in the test on RXF 393, in the test on M14, in the test on SNB-78, in the test with SW-620 and in the test with ACHN was > 100 µM (inactive) in each case. The GI50 with SF-268, in the test on HOP-92, with HL-60, with A498, in the test on A549 and with 786-0 was > 100 µM (inactive) throughout. Further, the GI50 in the test on OVCAR-4 is > 100 µM (inactive); in the test on NCI-H226, > 100 µM (inactive); with SNB-75 it was 86.1 µM (inactive).

Consider `O=C(/C(=C/c1ccc(Cl)cc1)c1ccccc1)c1ccccc1`, for which the GI50 with COLO 205 was 18.8 µM (inactive); in the test on M14, 16.3 µM (inactive); with SNB-78, 19.9 µM (inactive); in the test on SW-620, 17.4 µM (inactive); in the test on ACHN, 19.7 µM (inactive); with EKVX it was 26.5 µM (inactive). Also, the GI50 was 18.2 µM (inactive) with SF-268; 13.9 µM (inactive) in the test with HOP-92; 19.9 µM (inactive) in the test with HL-60; 23.6 µM (inactive) in the test with A498; 22.3 µM (inactive) with 786-0; 18 µM (inactive) in the test on OVCAR-4. Further, the GI50 in the test with NCI-H226 is 17.1 µM (inactive); in the test on SNB-75, 22.8 µM (inactive).

As for `CC1(c2cccc(N)c2)C2C(=O)NC(=O)C1C(=O)NC2=O` (configuration not stated), the GI50 with COLO 205 is 23.7 µM (inactive); in the test on RXF 393, 26.1 µM (inactive); with M14, 36.7 µM (inactive); with SNB-78, 51.2 µM (inactive); in the test on SW-620, 34 µM (inactive); in the test on ACHN, 28.2 µM (inactive). Also, the GI50 in the test with EKVX was 45 µM (inactive); in the test on SF-268 it was 35.7 µM (inactive); with HOP-92 it was 22.9 µM (inactive); in the test with HL-60, 19.6 µM (inactive); in the test with A498 it was 23.4 µM (inactive); in the test on A549, 33.9 µM (inactive). For the same compound, the GI50 with 786-0 was 38.3 µM (inactive); in the test with OVCAR-4, 36.7 µM (inactive); with NCI-H226, 28.1 µM (inactive); in the test on SNB-75, 28.1 µM (inactive).

Consider `O=C(Cc1ccccc1)N/N=C(/c1nc2ccc([N+](=O)[O-])cc2nc1O)C(O)c1ccccc1Cl` (configuration not stated), for which the GI50 in the test with COLO 205 is > 100 µM (inactive); in the test on M14, 60.8 µM (inactive); with SNB-78 it was > 100 µM (inactive); in the test on SW-620 it was 89.9 µM (inactive); in the test with ACHN it was 56.6 µM (inactive); in the test on EKVX, > 100 µM (inactive). Also, the GI50 in the test with SF-268 was > 100 µM (inactive); in the test on HOP-92, > 100 µM (inactive); in the test with HL-60, > 100 µM (inactive); with A498, > 100 µM (inactive); with A549, 80.2 µM (inactive); with 786-0 it was > 100 µM (inactive). The GI50 in the test with OVCAR-4, in the test with NCI-H226 and in the test with SNB-75 was > 100 µM (inactive) in each case.

For the compound `C/C(CCn1[nH]c(=O)ccc1=O)=N\NC(=O)C(N)=O`, the GI50 with COLO 205, in the test with RXF 393, with M14, in the test on SNB-78, with SW-620 and with ACHN was > 100 µM (inactive) each time. The GI50 in the test with EKVX, in the test on SF-268, in the test on HOP-92, in the test with HL-60, with A498 and with A549 was > 100 µM (inactive) each time. The GI50 with 786-0, in the test on OVCAR-4, in the test with NCI-H226 and in the test with SNB-75 was > 100 µM (inactive) in each case.

With `Cc1c(Cl)cccc1N1C(=O)C(Cl)=C(Cl)C1=O`, the GI50 with COLO 205 was > 65.9 µM (inactive); with RXF 393, 44.4 µM (inactive); in the test with M14 it was > 100 µM (inactive); in the test with SNB-78 it was > 100 µM (inactive); in the test on SW-620 it was > 58.2 µM (inactive); in the test with ACHN it was > 100 µM (inactive). The GI50 is > 100 µM (inactive) in the test with EKVX; > 100 µM (inactive) in the test with SF-268; > 73.8 µM (inactive) in the test with HOP-92; > 100 µM (inactive) with A498; > 100 µM (inactive) in the test with A549; 98.6 µM (inactive) with 786-0. For the same compound, the GI50 in the test on OVCAR-4, in the test on NCI-H226 and in the test with SNB-75 was > 100 µM (inactive) each time.

For `COc1ccc(/C(C#N)=C(/N)SCc2ccccc2Cl)cc1`, the GI50 is 20.3 µM (inactive) with COLO 205; 16.6 µM (inactive) in the test with RXF 393; 14.2 µM (inactive) in the test with M14; 27 µM (inactive) in the test on SNB-78; 16.1 µM (inactive) in the test with SW-620; > 10 µM (inactive) in the test with ACHN. In addition, the GI50 in the test with EKVX is 21.2 µM (inactive); with SF-268, 16.4 µM (inactive); with HOP-92, 17.8 µM (inactive); in the test on HL-60, 14.3 µM (inactive); with A498, 18.9 µM (inactive); in the test on A549, 26.4 µM (inactive). Further, the GI50 with 786-0 is 16.1 µM (inactive); in the test with NCI-H226, 16.4 µM (inactive); in the test on SNB-75 it was 23.2 µM (inactive).

Consider `COC(=O)C12C3C4C1C1C2C3C41C(=O)O` (configuration not stated), for which the GI50 in the test with COLO 205, in the test on RXF 393, with M14, with SNB-78, with SW-620 and in the test on ACHN was > 100 µM (inactive) in each case. Further, the GI50 in the test with EKVX, in the test with SF-268, with HOP-92, in the test with HL-60, in the test on A498 and in the test on A549 was > 100 µM (inactive) in each case. The GI50 in the test with 786-0, with OVCAR-4 and with NCI-H226 was > 100 µM (inactive) throughout.

With `CCOC(=O)c1cn(Cc2ccccc2)c(=O)n1Cc1ccccc1`, the GI50 in the test with COLO 205, in the test with RXF 393, with M14, in the test on SNB-78, with SW-620 and with ACHN was > 100 µM (inactive) each time. In addition, the GI50 in the test on EKVX was > 100 µM (inactive); with SF-268, > 100 µM (inactive); in the test with HOP-92, > 100 µM (inactive); with HL-60, 6.93 µM (inactive); with A498, > 100 µM (inactive); with A549 it was 75 µM (inactive). Besides, the GI50 in the test with 786-0, with OVCAR-4, in the test on NCI-H226 and with SNB-75 was > 100 µM (inactive) in each case.

Take `O=C(O)C1C2CC3CC2CC31` (configuration not stated): the GI50 in the test on COLO 205, with RXF 393, in the test with M14, in the test on SNB-78, in the test with SW-620 and in the test on ACHN was > 100 µM (inactive) throughout. The GI50 with EKVX, with SF-268, with HOP-92, in the test with HL-60, with A498 and with A549 was > 100 µM (inactive) throughout. The GI50 in the test with 786-0, in the test with OVCAR-4 and with SNB-75 was > 100 µM (inactive) throughout.

Take `C[C@@H]1C[C@@H]([C@H](O)CC2CC(=O)NC(=O)C2)C(=O)[C@@H](C)C1` [CYCLOHEXIMIDE]: the GI50 in the test on COLO 205 is 0.0352 µM (active); in the test on RXF 393, 0.0315 µM (active); with M14, 0.0532 µM (active); in the test on SNB-78 it was 0.0875 µM (active); in the test with SW-620, 0.0462 µM (active); in the test on ACHN, 0.0291 µM (active). For the same compound, the GI50 in the test on EKVX is 0.0933 µM (active); in the test on SF-268, 0.0438 µM (active); in the test on HOP-92, 0.0366 µM (active); in the test on HL-60, 0.0485 µM (active); with A549, 0.0366 µM (active); in the test on 786-0 it was 0.0372 µM (active). Further, the GI50 is 0.0366 µM (active) in the test on OVCAR-4, 0.219 µM (active) with NCI-H226 and 0.083 µM (active) in the test on SNB-75.

For the origin of these results see ChEMBL document CHEMBL1201862, “PubChem BioAssay data set” (2004).
